According to PMC9966435, “Synthesis and Biological Evaluation of 3-Amidoquinuclidine Quaternary Ammonium Compounds as New Soft Antibacterial Agents” (Pharmaceuticals, 2023):
Values after ≈ are worked out from the molar mass of the structure shown. Like-named read-outs stand apart in the source and are kept apart here.

Assays:
Format in all cases: cell-based
[1] = tested on: Staphylococcus aureus ATCC33591; assay: Broth microdilution MIC in Mueller Hinton broth; conditions: Staphylococcus aureus
[2] = tested on: Salmonella enterica food isolate; assay: microbe, parasite or virus in culture; conditions: Salmonella enterica, read-out: Minimum Inhibitory Concentration (MIC) Salmonella enterica food isolate
[3] = tested on: Pseudomonas aeruginosa ATTC27853; assay: Broth microdilution MIC in Mueller Hinton broth; conditions: Pseudomonas aeruginosa
[4] = tested on: Bacillus cereus ATCC14579; assay: Broth microdilution MIC in Mueller Hinton broth; conditions: Bacillus cereus
[5] = tested on: Escherichia coli ATTC25922; assay: Broth microdilution MIC in Mueller Hinton broth; conditions: Escherichia coli
[6] = tested on: Listeria monocytogenes ATCC7644; assay: Broth microdilution MIC in Mueller Hinton broth; conditions: Listeria monocytogenes
[7] = tested on: Staphylococcus aureus Clinical/MRSA; assay: Broth microdilution MIC in Mueller Hinton broth; conditions: Staphylococcus aureus, MRSA, read-out: Minimum Inhibitory Concentration (MIC) Staphylococcus aureus Clinical/MRSA
[8] = tested on: Staphylococcus aureus ATCC25923; assay: Broth microdilution MIC in Mueller Hinton broth
[9] = tested on: Enterococcus faecalis ATCC29212; assay: Broth microdilution MIC in Mueller Hinton broth; conditions: Enterococcus faecalis
[10] = tested on: Staphylococcus aureus ATCC 25923; assay: MIC in cation-adjusted Mueller Hinton broth (CA-MHB)
Protocol: A representative bacterial strain, Staphylococcus aureus ATCC 25923, was grown overnight in Mueller Hinton broth (MHB). The following day, the culture was diluted in tempered MHB and allowed to grow at 37 °C with constant shaking of 220 rpm. Once the bacterial culture reached the exponential growth phase (OD600 = 0.3–0.5), it was diluted in the cation-adjusted Mueller Hinton broth (CA-MHB) containing MgCl2 (10 mM) to the final cell count of 5 × 10^5 CFU/mL. The previously prepared 96-well plate contained twofold serial dilutions of the compounds to be tested, dissolved in CA-MHB, in the concentrations range of 125 µM to 0.12 µM. Then, 50 µL of the bacterial cells diluted in CA-MHB was pipetted in each well of the plate and incubated overnight at 37 °C with constant shaking at 220 rpm. The next day, the minimum inhibitory concentration (MIC) was determined as the lowest concentration of the compound that prevented supposed bacterial growth in the wells. Visually determined results of antibacterial activity were confirmed by the addition of 20 µL 2-(4-iodophenyl)-3-(4-nitrophenyl)-5-phenyltetrazolium chloride (INT) reagent (6 mg/mL). The MIC value of a drug in CA-MHB containing NaCl (85 mM) was determined using the same experimental technique.

[11] = tested on: Staphylococcus aureus ATCC 25923; assay: MIC in Dulbecco's Modified Eagle Medium (DMEM)
Protocol: The overnight culture of Staphylococcus aureus ATCC 25923 was diluted in fresh Mueller Hinton broth (MHB) and placed in an orbital shaker incubator (Gallenkamp, Cambridge, UK) at 37 °C and 220 rpm. Once the culture reached the exponential growth phase (OD600 = 0.3–0.5), cells were centrifuged (Heraeus, Biofuge primo R, Hanau, Germany) at room temperature at a speed of 4000× g. The cell pellet was resuspended in tempered Dulbecco’s Modified Eagle Medium (DMEM) to a final concentration of 5 × 10^5 CFU/mL. Then, 50 µL of as-prepared cells were added to a 96-well plate containing twofold serial dilutions of tested compounds in DMEM medium in the range of concentrations from 125 µM to 0.12 µM. The minimum inhibitory concentration (MIC) was visually assessed the next day. The MIC was determined as the lowest concentration of the substance at which no apparent bacterial growth was seen.

[12] = tested on: Staphylococcus aureus ATCC 25923; assay: Time-resolved growth analysis
Protocol: The growth kinetic experiments were performed to further investigate the efficacy of the selected 3-amidoquinnuclidine candidates. The candidates from series 1 (QC14-Me, QC14-Ally, QC16-Me, and QC16-Ally) and series 3 (QBn-C12, QBn-C14, and QBn-C16) were incubated at MIC and ½ MIC for 350 min with an appropriate number of CFU of Staphylococcus aureus ATCC 25923 at 37 °C with shaking. Time-resolved growth analysis was performed along with the control, in which bacterial growth was monitored without the presence of the antibacterial agent.
Time-resolved growth analysis was performed in the microtiter plate reader (Bio-Tek EL808, Winooski, VT, USA) by incubating the selected antibacterial agent with Staphylococcus aureus ATCC 25923. The exponentially grown culture (OD600 = 0.3–0.5) of S. aureus ATCC 25923 was diluted to a final concentration of 5 × 10^4 CFU/mL. Then, 50 µL of such prepared cell culture was added to the 96-well plates containing the MIC or ½ MIC of the compound to be tested. The plates were incubated at 37 °C for 350 min in the microplate reader with shaking. OD600 was recorded at 10 min intervals. The results obtained represent the mean of two independent experiments performed in triplicate.

[13] = ATCC33591, read-out: Minimum Inhibitory Concentration (MIC) Staphylococcus aureus ATCC33591
[14] = ATTC27853, read-out: Minimum Inhibitory Concentration (MIC) Pseudomonas aeruginosa ATTC27853
[15] = ATCC14579, read-out: Minimum Inhibitory Concentration (MIC) Bacillus cereus ATCC14579
[16] = ATTC25922, read-out: Minimum Inhibitory Concentration (MIC) Escherichia coli ATTC25922
[17] = ATCC7644, read-out: Minimum Inhibitory Concentration (MIC) Listeria monocytogenes ATCC7644
[18] = Staphylococcus aureus, ATCC25923, read-out: Minimum Inhibitory Concentration (MIC) Staphylococcus aureus ATCC25923
[19] = ATCC29212, read-out: Minimum Inhibitory Concentration (MIC) Enterococcus faecalis ATCC29212
[20] = ATCC33591, MHB, read-out: Minimum Inhibitory Concentration (MIC) Staphylococcus aureus ATCC33591
[21] = ATTC27853, MHB, read-out: Minimum Inhibitory Concentration (MIC) Pseudomonas aeruginosa ATTC27853
[22] = ATCC14579, MHB, read-out: Minimum Inhibitory Concentration (MIC) Bacillus cereus ATCC14579
[23] = ATTC25922, MHB, read-out: Minimum Inhibitory Concentration (MIC) Escherichia coli ATTC25922
[24] = ATCC7644, MHB, read-out: Minimum Inhibitory Concentration (MIC) Listeria monocytogenes ATCC7644
[25] = Staphylococcus aureus, ATCC25923, MHB, read-out: Minimum Inhibitory Concentration (MIC) Staphylococcus aureus ATCC25923
[26] = ATCC29212, MHB, read-out: Minimum Inhibitory Concentration (MIC) Enterococcus faecalis ATCC29212
[27] = ATCC25923, cation-adjusted MHB, S. aureus ATCC 25923, read-out: MIC CA-MHB
[28] = MHB, read-out: Minimum Inhibitory Concentration (MIC) Staphylococcus aureus ATCC25923
[29] = ATCC25923, Dulbecco's Modified Eagle Medium, S. aureus ATCC 25923, read-out: MIC DMEM
[30] = ATCC25923, read-out: MIC CA-MHB

Row | SMILES | MIC [1, 13] [µM] | MIC [2] [µM] | MIC [3, 14] [µM] | MIC [4, 15] [µM] | MIC [5, 16] [µM] | MIC [6, 17] [µM] | MIC [7] [µM] | MIC [8, 18] [µM] | MIC [9, 19] [µM] | MIC [1, 20] [µM] | MIC [3, 21] [µM] | MIC [4, 22] [µM] | MIC [5, 23] [µM] | MIC [6, 24] [µM] | MIC [8, 25] [µM] | MIC [9, 26] [µM] | MIC [8, 28] [µM] | also measured
1 | CC(=O)NC1CN2CCC1CC2 (racemic) [QAc, (±)3-acetamidoquinuclidine] | > 100 | > 100 | > 100 | > 100 | > 100 | > 100 | > 100 | > 100 | > 100 |  |  |  |  |  |  |  |  | 
2 | O=C(NC1CN2CCC1CC2)c1ccccc1 (racemic) [QBn, (±)3-benzamidoquinuclidine] |  | > 100 |  |  |  |  | > 100 |  |  | > 100 | > 100 | > 100 | > 100 | > 100 | > 100 | > 100 |  | 
3 | CCCCCCCCCCCC[N+]12CCC(CC1)C(NC(C)=O)C2 (stereo not shown) [QAc-C12] | > 125 | > 125 | > 125 | > 125 | > 125 | > 125 | > 125 | > 125 | > 125 |  |  |  |  |  |  |  |  | 
4 | CCCCCCCCCCCCCC[N+]12CCC(CC1)C(NC(C)=O)C2 (stereo not shown) [QAc-C14] | > 125 | > 125 | > 125 | > 125 | > 125 |  | > 125 | > 125 |  |  |  |  |  | 63 |  | 63 |  | 
5 | CCCCCCCCCCCCCCCC[N+]12CCC(CC1)C(NC(C)=O)C2 (stereo not shown) [QAc-C16] | > 125 | > 125 | > 125 | > 125 | > 125 |  | > 125 | > 125 |  |  |  |  |  | 8 |  | 31 |  | 
6 | CCCCCCCCCCCC[N+]12CCC(CC1)C(NC(=O)c1ccccc1)C2 (stereo not shown) [QBn-C12] |  | 63 |  |  |  |  | 63 |  |  | 63 | > 125 | 63 | 63 | 31 | 63 | 31 | 63 | MIC [10, 27]: 25 µM; MIC [11, 29]: 3 µM
7 | CCCCCCCCCCCCCC[N+]12CCC(CC1)C(NC(=O)c1ccccc1)C2 (stereo not shown) [QBn-C14] |  | 31 |  |  |  |  | 31 |  |  | 31 | 63 | 63 | 31 | 4 | 31 | 8 | 31 | MIC [10, 27]: 25 µM; MIC [11, 29]: 3 µM
8 | CCCCCCCCCCCCCCCC[N+]12CCC(CC1)C(NC(=O)c1ccccc1)C2 (stereo not shown) [QBn-C16] |  | 63 |  |  |  |  | 31 |  |  | 31 | > 125 | 63 | 31 | 4 | 63 | 4 | 63 | MIC [10, 27]: 6 µM; MIC [11, 29]: 3 µM
9 | C=CC[N+]12CCC(CC1)C(NC(=O)CCCCCCCCCCC)C2 (stereo not shown) [QC12-Ally] | > 125 | > 125 | > 125 | > 125 | > 125 | > 125 | > 125 | > 125 | > 125 |  |  |  |  |  |  |  |  | 
10 | CCCCCCCCCCCC(=O)NC1C[N+]2(C)CCC1CC2 (stereo not shown) [QC12-Me] | > 125 | > 125 | > 125 |  |  |  | 100 |  |  |  |  | 100 | 100 | 100 | 100 | 100 |  | 
11 | CCCCCCCCCCCC(=O)NC1CN2CCC1CC2 (stereo not shown) [QC12] |  | > 100 |  |  |  |  | > 100 |  |  | 100 (≈ 30.9 µg/mL) | > 100 | > 100 | > 100 | 100 (≈ 30.9 µg/mL) | > 100 | > 100 |  | 
12 | CCCCCCCCCCCCCC(=O)NC1C[N+]2(C)CCC1CC2 (stereo not shown) [QC14-Me] | 100 |  | > 125 | 50 | 100 | 20 | 60 | 40 | 30 |  |  |  |  |  |  |  | 40 | MIC ([2]; MHB): > 125 µM; MIC [10, 30]: 40 µM; inhibition of bacterial growth at ½ MIC [12]: unable to inhibit bacterial growth; MIC ([11]; ATCC25923, read-out: MIC DMEM): 12 µM
13 | CCCCCCCCCCCCCC(=O)NC1CN2CCC1CC2 (stereo not shown) [QC14] |  | 100 (≈ 33.7 µg/mL) |  |  |  |  | 50 (≈ 16.8 µg/mL) |  |  | 50 (≈ 16.8 µg/mL) | > 100 | 25 (≈ 8.41 µg/mL) | 50 (≈ 16.8 µg/mL) | 25 (≈ 8.41 µg/mL) | 60 (≈ 20.2 µg/mL) | 17 (≈ 5.72 µg/mL) |  | 
14 | CCCCCCCCCCCCCCCC(=O)NC1C[N+]2(C)CCC1CC2 (stereo not shown) [QC16-Me] | 25 |  | > 125 | > 100 | > 100 | 8 | 31 | 16 | 100 |  |  |  |  |  |  |  | 16 | MIC ([2]; MHB): > 125 µM; MIC [10, 30]: 16 µM; MIC ([11]; ATCC25923, read-out: MIC DMEM): 6 µM
15 | CCCCCCCCCCCCCCCC(=O)NC1CN2CCC1CC2 (stereo not shown) [QC16] |  | > 100 |  |  |  |  | 250 (≈ 91.2 µg/mL) |  |  | 100 (≈ 36.5 µg/mL) | > 100 | > 100 | > 100 | 125 (≈ 45.6 µg/mL) | 62.5 (≈ 22.8 µg/mL) | > 100 |  | 
16 | NC1CN2CCC1CC2 (stereo not shown) [QNH2, 3-aminoquinuclidine] | > 100 | > 100 | > 100 | > 100 | > 100 | > 100 | > 100 | > 100 | > 100 |  |  |  |  |  |  |  |  | 
